Assay results from the supplement of paper PMC10307832.

Tests used:
Assay in all cases: relative viability (nuclei count vs DMSO), 5 days (fraction); higher = more cells survive
Bortezomib + Crizotinib = compound: CC(C)C[C@H](NC(=O)[C@H](Cc1ccccc1)NC(=O)c1cnccn1)B(O)O [Bortezomib] + C[C@@H](Oc1cc(-c2cnn(C3CCNCC3)c2)cnc1N)c1c(Cl)ccc(F)c1Cl [Crizotinib] (partner 1 µM)
Procedure, shortened: (§1)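 A single step with final 0.05% Triton X-100, 1% formaldehyde and 1 ug/ml Hoechst fixed the cells and stained nuclei 5 days after treatment. Lung cancer cell lines in 1536-well plates had been treated by pin tool the day after seeding with one drug alone or a fixed anchor-drug dose plus five library-drug doses (not always all listed) in √10 steps, and nuclei were counted on 4× images. Relative viability is the ratio of nuclei in treated wells to nuclei in vehicle wells, taken as the median of duplicate plates.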

Bortezomib + Navitoclax = compound: CC(C)C[C@H](NC(=O)[C@H](Cc1ccccc1)NC(=O)c1cnccn1)B(O)O [Bortezomib] + CC1(C)CCC(c2ccc(Cl)cc2)=C(CN2CCN(c3ccc(C(=O)NS(=O)(=O)c4ccc(N[C@H](CCN5CCOCC5)CSc5ccccc5)c(S(=O)(=O)C(F)(F)F)c4)cc3)CC2)C1 [Navitoclax] (partner 0.5 µM)
Procedure, shortened: as §1

Bortezomib + Decitabine = compound: CC(C)C[C@H](NC(=O)[C@H](Cc1ccccc1)NC(=O)c1cnccn1)B(O)O [Bortezomib] + Nc1ncn([C@H]2C[C@H](O)[C@@H](CO)O2)c(=O)n1 [Decitabine] (partner 2 µM)
Procedure, shortened: as §1

Obatoclax + Bortezomib = compound: COC1=CC(c2cc3ccccc3[nH]2)=N/C1=C\c1[nH]c(C)cc1C [Obatoclax] + CC(C)C[C@H](NC(=O)[C@H](Cc1ccccc1)NC(=O)c1cnccn1)B(O)O [Bortezomib] (partner 0.002 µM)
Procedure, shortened: as §1

Cell Line | relative viability (Bortezomib + Crizotinib; first compound 0.0002 µM) | relative viability (Bortezomib + Crizotinib; first compound 0.000632 µM) | relative viability (Bortezomib + Crizotinib; first compound 0.002 µM) | relative viability (Bortezomib + Crizotinib; first compound 0.006325 µM) | relative viability (Bortezomib + Crizotinib; first compound 0.02 µM) | relative viability (Bortezomib + Navitoclax; first compound 0.0002 µM) | relative viability (Bortezomib + Navitoclax; first compound 0.000632 µM) | relative viability (Bortezomib + Navitoclax; first compound 0.002 µM) | relative viability (Bortezomib + Navitoclax; first compound 0.006325 µM) | relative viability (Bortezomib + Navitoclax; first compound 0.02 µM) | relative viability (Bortezomib + Decitabine; first compound 0.0002 µM) | relative viability (Bortezomib + Decitabine; first compound 0.000632 µM) | relative viability (Bortezomib + Decitabine; first compound 0.002 µM) | relative viability (Bortezomib + Decitabine; first compound 0.006325 µM) | relative viability (Bortezomib + Decitabine; first compound 0.02 µM) | relative viability (Obatoclax + Bortezomib; first compound 0.01 µM) | relative viability (Obatoclax + Bortezomib; first compound 0.03162 µM) | relative viability (Obatoclax + Bortezomib; first compound 0.1 µM) | relative viability (Obatoclax + Bortezomib; first compound 0.3162 µM) | relative viability (Obatoclax + Bortezomib; first compound 1 µM)
NCI-H596 | 0.98 | 0.957 | 1.02 | 0.224 | 0.182 | 0.921 | 0.817 | 0.925 | 0.123 | 0.131 | 1.01 | 0.999 | 0.95 | 0.251 | 0.208 | 1.12 | 0.974 | 0.812 | 0.696 | 0.674
NCI-H647 | 0.993 | 0.954 | 0.627 | 0.0302 | 0.0195 | 0.997 | 1.1 | 0.619 | 0.0302 | 0.0207 | 0.483 | 0.404 | 0.38 | 0.0562 | 0.0417 | 0.902 | 0.853 | 0.541 | 0.351 | 0.143
NCI-H727 | 0.774 | 0.864 | 0.91 | 0.155 | 0.0951 | 0.455 | 0.511 | 0.541 | 0.167 | 0.103 | 0.993 | 1.09 | 0.875 | 0.95 | 0.834 | 0.892 | 0.827 | 1.17 | 0.847 | 0.335
NCI-H838 | 0.822 | 0.811 | 0.916 | 0.348 | 0.123 | 1.21 | 1.21 | 1.17 | 0.171 | 0.161 | 0.473 | 0.467 | 0.459 | 0.184 | 0.138 | 1.01 | 0.748 | 0.495 | 0.754 | 0.404
NCI-H1355 | 1.02 | 1.06 | 0.788 | 0.275 | 0.139 | 0.85 | 0.95 | 0.737 | 0.604 | 0.139 | 0.343 | 0.362 | 0.367 | 0.177 | 0.139 | 1.23 | 1.11 | 1.09 | 1.06 | 1.21
NCI-H1437 | 0.966 | 0.894 | 0.92 | 0.0811 | 0.0914 | 1.08 | 1.09 | 1.1 | 0.118 | 0.123 | 0.585 | 0.585 | 0.595 | 0.214 | 0.223 | 0.463 | 0.421 | 0.477 | 0.438 | 0.358
NCI-H1650 | 0.973 | 0.93 | 0.158 | 0.124 | 0.147 | 1.17 | 1.17 | 0.191 | 0.119 | 0.106 | 0.488 | 0.484 | 0.182 | 0.137 | 0.128 | 0.208 | 0.198 | 0.196 | 0.19 | 0.197
NCI-H1651 | 0.805 | 0.837 | 0.816 | 0.778 | 0.141 | 1.17 | 0.958 | 0.263 | 0.14 | 0.101 | 0.659 | 0.732 | 0.619 | 0.665 | 0.172 | 0.901 | 0.855 | 0.858 | 0.943 | 0.992
NCI-H1666 | 0.941 | 1.11 | 0.9 | 0.202 | 0.228 | 0.832 | 1.08 | 0.848 | 0.211 | 0.196 | 0.782 | 0.839 | 0.728 | 0.646 | 0.477 | 0.863 | 0.815 | 0.979 | 0.348 | 0.35
NCI-H1734 | 0.737 | 0.71 | 0.491 | 0.106 | 0.0952 | 0.86 | 0.872 | 0.662 | 0.112 | 0.0892 | 0.552 | 0.503 | 0.462 | 0.12 | 0.0968 | 0.928 | 0.818 | – | 0.914 | 0.836
NCI-H1755 | 0.866 | 0.828 | 0.877 | 0.196 | 0.156 | 0.975 | 0.979 | 0.917 | 0.269 | 0.165 | 0.699 | 0.716 | 0.734 | 0.452 | 0.237 | 0.926 | 0.937 | 0.805 | 0.949 | 0.967
NCI-H1792 | 0.893 | 0.974 | 0.952 | 0.933 | 0.729 | 0.622 | 0.582 | 0.638 | 0.633 | 0.582 | 0.473 | 0.581 | 0.664 | 0.286 | 0.0625 | 0.992 | 0.926 | – | 0.917 | 0.975
NCI-H1915 | 0.877 | 0.909 | 0.694 | 0.435 | 0.0428 | 0.676 | 0.764 | 0.799 | 0.0915 | 0.0811 | 0.266 | 0.256 | 0.254 | 0.14 | 0.059 | 1.05 | 0.748 | 0.93 | 1.01 | 0.975
NCI-H1975 | 0.944 | 0.883 | 0.192 | 0.128 | 0.127 | 1.05 | 1.05 | 0.315 | 0.136 | 0.133 | 0.411 | 0.371 | 0.176 | 0.126 | 0.115 | 0.357 | 0.456 | 0.361 | 0.49 | 0.253
NCI-H1993 | 0.876 | 0.974 | 0.847 | 0.342 | 0.506 | 0.94 | 0.982 | 1.01 | 0.52 | 0.48 | 0.634 | 0.717 | 0.622 | 0.319 | 0.374 | 1.2 | 1.05 | 1.22 | 1.2 | 1.2
NCI-H2009 | 0.992 | 1.06 | 0.956 | 0.329 | 0.0389 | 1.16 | 1.1 | 1.15 | 0.0798 | 0.0607 | 0.392 | 0.431 | 0.388 | 0.101 | 0.0757 | 1.01 | 1.12 | 0.764 | 0.395 | 0.203
NCI-H2023 | 0.606 | 0.718 | 0.598 | 0.146 | 0.0674 | 0.967 | 0.994 | 0.936 | 0.17 | 0.0898 | 0.216 | 0.236 | 0.245 | 0.122 | 0.0571 | 1.03 | 1.08 | 0.808 | 0.675 | 0.425
NCI-H2085 | 0.814 | 0.988 | 0.757 | 0.188 | 0.217 | 1.18 | 1.14 | 1.05 | 0.248 | 0.211 | 0.588 | 0.544 | 0.593 | 0.298 | 0.246 | 1.06 | 1.1 | 0.93 | 0.88 | 0.427
NCI-H2087 | 0.912 | 0.911 | 0.74 | 0.0857 | 0.072 | 0.991 | 1.02 | 0.509 | 0.0888 | 0.0686 | 0.233 | 0.265 | 0.141 | 0.0621 | 0.0401 | 0.645 | 0.775 | 0.665 | 0.779 | 0.335
NCI-H2126 | 0.991 | 0.993 | 1.08 | 0.957 | 0.195 | 0.857 | 0.844 | 0.827 | 0.848 | 0.327 | 0.603 | 0.597 | 0.535 | 0.552 | 0.197 | 1.13 | 1.04 | 1.09 | 1.12 | 1.07
NCI-H2347 | 0.657 | 0.582 | 0.348 | 0.291 | 0.298 | 0.513 | 0.847 | 0.651 | 0.197 | 0.193 | 0.631 | 0.601 | 0.648 | 0.466 | 0.429 | 0.935 | 0.859 | 1.07 | – | 0.95
NCI-H2405 | 0.88 | 0.83 | 0.834 | 0.24 | 0.15 | 0.769 | – | 0.134 | 0.0865 | 0.113 | 0.716 | 0.692 | 0.545 | 0.212 | 0.181 | 1.01 | 0.852 | – | 0.982 | 1.07
NCI-H3122 | 0.252 | 0.264 | 0.287 | 0.275 | 0.182 | 1.01 | 1.04 | 1.06 | 0.625 | 0.167 | 0.439 | 0.438 | 0.403 | 0.34 | 0.129 | 0.966 | 1.01 | 1.02 | 1.03 | 1.06
PC-3 [JPC-3] | 1.01 | 0.98 | 0.726 | 0.934 | 0.133 | 0.783 | 0.842 | 0.724 | 0.44 | 0.139 | 0.815 | 0.84 | 0.428 | 0.301 | 0.237 | 0.905 | 0.789 | 0.815 | 0.827 | 0.977
PC-14 | 0.935 | 0.935 | 0.947 | 0.359 | 0.0821 | 1.02 | 0.941 | 0.992 | 0.0667 | 0.0697 | 0.254 | 0.234 | 0.195 | 0.0599 | 0.0702 | 0.782 | 0.947 | 0.777 | 0.798 | 0.283
RERF-LC-KJ | 0.846 | 0.85 | 0.84 | 0.271 | 0.178 | 1.01 | 1.19 | 0.593 | 0.247 | 0.244 | 0.663 | 0.707 | 0.531 | 0.226 | 0.219 | 1.04 | 1.07 | 1.09 | 0.851 | 0.765
SK-LU-1 | 0.793 | 0.912 | 0.626 | 0.173 | 0.136 | 0.781 | 0.83 | 0.903 | 0.0872 | 0.0835 | 0.499 | 0.644 | 0.533 | 0.245 | 0.174 | 1.15 | 1.05 | 0.44 | 1.05 | 0.75
SW 1573 | 0.851 | 0.82 | 0.631 | 0.181 | 0.0539 | 0.849 | 1.12 | 0.928 | 0.0531 | 0.0615 | 0.366 | 0.573 | 0.229 | 0.0617 | 0.0363 | 1.04 | 0.998 | 0.925 | 0.895 | 0.476
UMC-11 | 0.503 | 0.63 | 0.591 | 0.225 | 0.0917 | 0.288 | 0.281 | 0.315 | 0.12 | 0.101 | 0.628 | 0.713 | 0.483 | 0.326 | 0.203 | 0.645 | 0.428 | 0.689 | 0.743 | 0.265
